A word on the Kd: it is a measure of binding affinity in units of concentration. Higher therefore signals lower affinity.

No end group written: not given here.

The target of one test is T1, εPKC (Homo sapiens, UniProt Q02156).
T1 sequence (Q02156 1-737): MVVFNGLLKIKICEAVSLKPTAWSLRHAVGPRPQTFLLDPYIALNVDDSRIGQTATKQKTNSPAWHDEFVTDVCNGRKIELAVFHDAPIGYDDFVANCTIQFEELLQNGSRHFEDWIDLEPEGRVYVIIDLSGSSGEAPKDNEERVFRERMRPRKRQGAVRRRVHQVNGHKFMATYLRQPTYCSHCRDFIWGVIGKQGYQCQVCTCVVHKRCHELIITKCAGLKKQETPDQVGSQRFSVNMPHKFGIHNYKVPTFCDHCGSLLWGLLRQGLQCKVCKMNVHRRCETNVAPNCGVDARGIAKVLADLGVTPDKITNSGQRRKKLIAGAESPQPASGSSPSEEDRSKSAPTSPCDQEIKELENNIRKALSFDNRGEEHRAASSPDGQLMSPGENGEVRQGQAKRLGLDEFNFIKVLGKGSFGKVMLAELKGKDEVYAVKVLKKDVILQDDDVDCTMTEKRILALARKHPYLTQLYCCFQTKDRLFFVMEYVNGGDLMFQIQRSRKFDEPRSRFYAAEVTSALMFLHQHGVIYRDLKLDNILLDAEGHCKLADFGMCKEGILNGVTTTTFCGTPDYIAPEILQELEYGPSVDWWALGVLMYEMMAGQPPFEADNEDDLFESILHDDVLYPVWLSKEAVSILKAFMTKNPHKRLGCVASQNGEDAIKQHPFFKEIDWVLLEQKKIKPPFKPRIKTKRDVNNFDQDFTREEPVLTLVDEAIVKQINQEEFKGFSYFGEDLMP
Nature of the test: In vitro binding assay of εPKC to the peptides. Conditions: εPKC at ~75 μg/mL (~1 μM).

Test [1] deals with H9c2 cells. Nature of the test: Mitochondrial ROS production. Conditions: H9c2, ischemia and reoxygenation; peptide 2 μM.
For test [2], the system named is H9c2 cells. Format: cell-based. To be noted: H9c2, ischemia and reoxygenation.
Test [3] has as its system Rat hearts subjected to I/R. Put plainly: Langendorff ex vivo model of myocardial infarction. To be noted: ψDrp1 alanine substitution study, n=4.
The subject of a further test is phosphorylation of Drp1. Put plainly: Drp1 phosphorylation after cardiac I/R, ψDrp1 derivatives. Conditions: hearts subjected to I/R.
In another test the target is δPKC (Homo sapiens, UniProt Q05655). Nature of the test: In vitro binding assay of δPKC to the peptides.
Chain of δPKC (Q05655 whole entry): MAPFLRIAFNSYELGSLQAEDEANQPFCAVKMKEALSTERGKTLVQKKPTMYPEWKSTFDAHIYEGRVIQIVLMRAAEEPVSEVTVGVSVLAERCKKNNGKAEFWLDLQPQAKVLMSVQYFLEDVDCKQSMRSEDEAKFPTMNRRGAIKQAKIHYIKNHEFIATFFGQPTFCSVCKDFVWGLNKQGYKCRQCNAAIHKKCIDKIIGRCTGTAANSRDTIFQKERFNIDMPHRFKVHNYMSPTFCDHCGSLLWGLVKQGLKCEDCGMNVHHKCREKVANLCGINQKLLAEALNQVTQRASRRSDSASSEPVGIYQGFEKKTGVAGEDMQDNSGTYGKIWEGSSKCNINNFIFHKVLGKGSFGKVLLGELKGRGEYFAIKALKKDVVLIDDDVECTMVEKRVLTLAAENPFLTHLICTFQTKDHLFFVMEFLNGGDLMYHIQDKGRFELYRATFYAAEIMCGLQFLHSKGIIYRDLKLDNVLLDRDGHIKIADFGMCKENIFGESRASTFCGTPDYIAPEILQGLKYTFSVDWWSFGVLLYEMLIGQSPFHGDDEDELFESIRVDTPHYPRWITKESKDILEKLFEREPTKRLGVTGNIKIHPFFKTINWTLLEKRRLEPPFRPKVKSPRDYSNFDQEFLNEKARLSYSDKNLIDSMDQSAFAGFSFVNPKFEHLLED

Regarding “RAAEEP-NH2 (C-terminus assumed) [ψMARCKS-Cargo]”, the “Binding to εPKC” value on εPKC was “not to the another PKC isozyme, εPKC”.

For “YGRKKRRQRRRGGYTDFDE-NH2 (C-terminus assumed) [ψDrp1]”, in the test on H9c2 cells [1], the “Effect on excessive mitochondrial ROS production” value is “decreased excessive mitochondrial ROS production”. The “Effect on mitochondrial function and cell viability” value in the test with H9c2 cells [2] was “rescued mitochondrial function and cell viability”. The “Protection from cardiac damage” value in test [3] was determined as 75%.

In the case of YTAFDE-TAT [ψDrp1 Asp3 Ala], in the test on phosphorylation of Drp1, the “Effect on Drp1 phosphorylation” value is given as “inhibited Drp1 phosphorylation”. Moreover, the “Protection from cardiac damage” value in test [3] is 65%.

On δPKC, YTDFDE [ψDrp1-Cargo] showed a Kd of 1.4 ± 0.3 nM.

Source of the values: paper PMC5308906 (Angewandte Chemie (International ed. in English), 2016).
